Starred links: 1 amine or outer side, 2 acyl side, 3 side chain; linkers in the order of their positions; H or OH if unused. Non-standard residues stand in square brackets, D forms with d. Residues, ends and D or L forms follow the SMILES beside them. X1 = CNS(=O)(=O)c1ccccc1N([C@H](C(=O)[*:2])C(C)C)[*:1]
System: Pfu aminopeptidase I
Conditions: 100 μM 5, 40 μM 5a, 0.08 μg mL−1 aminopeptidase I, 20 μM Co(OAc)2, NaOAc buffer 5 mM, pH 6.0, 95 °C, quenched with EDTA, RP-HPLC at 220 and 310 nm, internal standard 19, starting material peak area compared with 0 h
Description: (b) RP-HPLC analysis of the enzymatic degradation of angiotensin IV (5) and arylated angiotensin IV (5a) with aminopeptidase I. Conditions: 100 μM 5, 40 μM 5a, 0.08 μg mL^−1 aminopeptidase I, and 20 μM Co(OAc)2 in NaOAc buffer (5 mM, pH = 6.0) at 95 °C. Internal standard 19 for quantification. (c) Peptidase activity: time course for aminopeptidease I cleavage of arylated angiotensin IV (5a, orange) and angiotensin IV (5, blue).
We decided to investigate whether the charge and structural perturbation afforded by the N-arylation engendered peptide stability towards enzymatic degradation.
Enzymatic Degradation with Aminopeptidase I
Stability Test of Peptides to Aminopeptidase I
1.7 mM in 20% aq. MeCN) and Co(OAc)2 (50 µL, 200 µM in H2O) in NaOAc buffer (338 µL, 5 mM,
pH = 6.0) was added aminopeptidase I (75 µL, 0.5 mg/mL in Tris buffer (50 mM, pH = 6.0). A 50 -
µL aliquot was immediately removed after addition of the enzyme and was quenched with EDTA
(5 µL, 1 M in H2O). Internal standard 2-amino-N,N’-dimethylbenzenesulfonamide 19 was added
(1.5 μL, 4 mM in DMSO) and the 0 h timepoint was analyzed by RP-HPLC (20-60% MeCN over
28 min) at 220 nm and 310 nm. The reaction mixture was then heated to 95 °C and 50-µL aliquots
were removed and quenched with EDTA (5 µL, 1 M in H2O) at 10 min, 30 min, 1 h, and 2 h. After
quenching, the internal standard 19 was added (1.5 μL, 4 mM in DMSO) and analyzed by RP- […]

SMILES	Stability towards enzymatic degradation by aminopeptidase I, after 2 h incubation (2 h)	Stability towards enzymatic degradation by aminopeptidase I, after 10 minutes (10 min)
CC[C@H](C)[C@H](NC(=O)[C@H](Cc1ccc(O)cc1)NC(=O)[C@@H](Nc1ccccc1S(=O)(=O)NC)C(C)C)C(=O)N[C@@H](Cc1c[nH]cn1)C(=O)N1CCC[C@H]1C(=O)N[C@@H](Cc1ccccc1)C(=O)O [5a] (H-[X1]YIHPF-OH)	remained stable	–
CC[C@H](C)[C@H](NC(=O)[C@H](Cc1ccc(O)cc1)NC(=O)[C@@H](N)C(C)C)C(=O)N[C@@H](Cc1cnc[nH]1)C(=O)N1CCC[C@H]1C(=O)N[C@@H](Cc1ccccc1)C(=O)O [compound 5, Angiotensin IV]	–	completely consumed
